{"source": "ChEMBL document CHEMBL4765241", "about": "“Identification and Preclinical Pharmacology of ((1 R,3 S)-1-Amino-3-(( S)-6-(2-methoxyphenethyl)-5,6,7,8-tetrahydronaphthalen-2-yl)cyclopentyl)methanol (BMS-986166): A Differentiated Sphingosine-1-phosphate Receptor 1 (S1P) Modulator Advanced into Clinical Trials” (J Med Chem, 2019)", "key": {"Rattus norvegicus [1]": {"system": "Rattus norvegicus", "test": "Reduction in circulating lymphocytes in Lewis rat blood at 2 mg/kg, po measured at 4 hrs by hematology analyzer based analysis", "type": "functional", "set-up": "scale not given: the % may be the effect or the level left"}, "[2]": {"test": "Volume of distribution at steady state in Beagle dog at 0.3 mg/kg, po or 1 mg/kg, iv", "type": "ADME, organism-based, Canis lupus familiaris", "conditions": "in vivo, read-out: Vdss"}, "[3]": {"test": "Volume of distribution at steady state in Sprague-Dawley rat at 1 mg/kg, po or 1 mg/kg, iv", "type": "ADME, organism-based", "conditions": "in vivo, read-out: Vdss"}, "[4]": {"test": "Ratio of drug metabolism in Lewis rat blood assessed as phosphate ester metabolite to parent drug at 2 mg/kg, po measured at 24 hrs by LC-MS/MS analysis", "type": "ADME, organism-based", "conditions": "in vivo"}, "[5]": {"test": "Tmax in Sprague-Dawley rat at 1 mg/kg, po or 1 mg/kg, iv", "type": "ADME, organism-based", "conditions": "in vivo"}, "[6]": {"test": "Terminal half-life in Sprague-Dawley rat at 1 mg/kg, iv", "type": "ADME, organism-based", "conditions": "in vivo, read-out: beta t1/2 (converted)"}, "[7]": {"test": "Drug metabolism in Lewis rat blood assessed as concentration of parent compound at 2 mg/kg, po measured at 24 hrs by LC-MS/MS analysis", "type": "ADME, organism-based", "conditions": "read-out: Ct"}, "Mus musculus [8]": {"system": "Mus musculus", "test": "(§1) Immunosuppressive activity in MOG (35 to 55 residues)/pertussis toxin-induced experimental autoimmune encephalomyelitis C57BL/6 mouse model assessed as maximum efficacy causing reduction in EAE clinical score administered orally once daily starting from day 1 post immunization and measured thrice weekly until day 24", "type": "functional"}, "[9]": {"test": "Clearance in cynomolgus monkey at 1 mg/kg, iv", "type": "ADME, organism-based, Macaca fascicularis", "conditions": "in vivo"}, "[10]": {"test": "Protein binding in cynomolgus monkey assessed as bound fraction", "type": "ADME, Macaca fascicularis", "conditions": "read-out: PB"}, "[11]": {"test": "Protein binding in mouse assessed as bound fraction", "type": "ADME", "conditions": "read-out: PB"}, "Mus musculus [12]": {"system": "Mus musculus", "test": "Antiarthritic activity in DBA/1 mouse model of collagen-induced arthritis assessed as reduction in paw histological score administered orally once daily as single dose for 21 days", "type": "functional, organism-based", "conditions": "time 21.0 day"}, "[13]": {"test": "Clearance in Sprague-Dawley rat at 1 mg/kg, iv", "type": "ADME, organism-based", "conditions": "in vivo"}, "Mus musculus [14]": {"system": "Mus musculus", "test": "as §1, with “as” for “as maximum efficacy causing”, “formation of inflammatory lesions in CNS” for “EAE clinical score”", "type": "functional, organism-based", "conditions": "dose 0.1-0.5 mg/kg"}, "Cytochrome P450 2C9": {"target": "Cytochrome P450 2C9 (Homo sapiens, UniProt P11712)", "sequence (P11712 whole entry)": "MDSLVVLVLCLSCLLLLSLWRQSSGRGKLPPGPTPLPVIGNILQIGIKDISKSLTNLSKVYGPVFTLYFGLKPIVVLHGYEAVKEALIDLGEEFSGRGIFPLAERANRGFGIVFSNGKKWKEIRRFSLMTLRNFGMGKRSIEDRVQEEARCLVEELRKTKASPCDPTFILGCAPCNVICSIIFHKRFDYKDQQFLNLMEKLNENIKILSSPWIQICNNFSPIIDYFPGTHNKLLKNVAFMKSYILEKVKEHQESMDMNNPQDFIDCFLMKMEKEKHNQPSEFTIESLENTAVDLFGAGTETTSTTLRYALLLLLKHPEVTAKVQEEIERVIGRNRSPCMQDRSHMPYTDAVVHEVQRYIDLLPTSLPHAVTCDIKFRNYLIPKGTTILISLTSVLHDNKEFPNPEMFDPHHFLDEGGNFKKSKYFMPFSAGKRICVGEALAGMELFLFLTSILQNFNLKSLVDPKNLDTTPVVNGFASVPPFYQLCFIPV", "test": "Inhibition of CYP2C9 (unknown origin)", "type": "ADME"}, "Cytochrome P450 2C8": {"target": "T1, Cytochrome P450 2C8 (Homo sapiens, UniProt P10632)", "T1 sequence (P10632 whole entry)": "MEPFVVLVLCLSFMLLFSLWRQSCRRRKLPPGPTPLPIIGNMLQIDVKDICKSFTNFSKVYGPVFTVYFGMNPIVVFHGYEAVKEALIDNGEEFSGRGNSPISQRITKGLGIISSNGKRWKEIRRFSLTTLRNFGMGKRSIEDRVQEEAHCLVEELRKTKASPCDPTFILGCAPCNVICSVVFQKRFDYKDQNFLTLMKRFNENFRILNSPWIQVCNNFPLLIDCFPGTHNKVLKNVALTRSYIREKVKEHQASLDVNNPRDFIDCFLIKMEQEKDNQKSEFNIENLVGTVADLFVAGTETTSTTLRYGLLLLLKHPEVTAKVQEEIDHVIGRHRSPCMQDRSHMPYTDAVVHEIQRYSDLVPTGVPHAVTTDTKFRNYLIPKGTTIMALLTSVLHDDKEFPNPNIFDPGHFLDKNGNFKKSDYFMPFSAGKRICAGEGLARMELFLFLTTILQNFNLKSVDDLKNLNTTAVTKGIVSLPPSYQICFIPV", "test": "Inhibition of CYP2C8 (unknown origin)", "type": "ADME"}, "Mus musculus [15]": {"system": "Mus musculus", "test": "as §1, with “EAE spinal cord” for “EAE”", "type": "functional"}, "Rattus norvegicus [16]": {"system": "Rattus norvegicus", "test": "Drug metabolism in Lewis rat blood assessed as concentration of phosphate ester metabolite formation at 2 mg/kg, po measured at 4 hrs by LC-MS/MS analysis", "conditions": "in vivo"}, "[17]": {"test": "AUC ratio in orally dosed Sprague-Dawley rat blood assessed as phosphate metabolite to parent compound", "type": "ADME, organism-based", "conditions": "in vivo, po"}, "[18]": {"test": "Pulmonary toxicity in Lewis rat assessed as elevation of BAL protein level at 10 mg/kg by advia1800 chemistry analyzer", "type": "organism-based", "conditions": "in vivo"}, "Cytochrome P450 2B6": {"target": "T2, Cytochrome P450 2B6 (Homo sapiens, UniProt P20813)", "T2 sequence (P20813 whole entry)": "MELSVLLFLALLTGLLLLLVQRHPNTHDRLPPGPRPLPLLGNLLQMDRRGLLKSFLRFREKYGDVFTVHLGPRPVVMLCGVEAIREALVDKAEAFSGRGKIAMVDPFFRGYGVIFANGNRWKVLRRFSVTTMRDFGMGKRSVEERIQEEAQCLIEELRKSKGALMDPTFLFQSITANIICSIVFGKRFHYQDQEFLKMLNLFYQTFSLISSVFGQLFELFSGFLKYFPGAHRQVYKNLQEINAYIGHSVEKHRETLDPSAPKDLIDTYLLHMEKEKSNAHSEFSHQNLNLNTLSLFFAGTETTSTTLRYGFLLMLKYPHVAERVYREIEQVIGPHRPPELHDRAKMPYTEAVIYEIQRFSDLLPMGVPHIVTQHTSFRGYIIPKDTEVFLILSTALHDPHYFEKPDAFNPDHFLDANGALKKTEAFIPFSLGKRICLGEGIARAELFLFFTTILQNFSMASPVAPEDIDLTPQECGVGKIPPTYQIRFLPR", "test": "Inhibition of CYP2B6 (unknown origin)", "type": "ADME"}, "[19]": {"test": "Volume of distribution at steady state in cynomolgus monkey at 1 mg/kg, po or 1 mg/kg, iv", "type": "ADME, organism-based, Macaca fascicularis", "conditions": "in vivo, read-out: Vdss"}, "Mus musculus [20]": {"system": "Mus musculus", "test": "Antiarthritic activity in DBA/1 mouse model of collagen-induced arthritis assessed as reduction in paw histological score at 0.5 mg/kg, po QD administered as single dose for 21 days", "type": "functional", "set-up": "scale not given: the % may be the effect or the level left", "conditions": "time 21 day"}, "[21]": {"test": "Oral bioavailability in beagle dog at 0.3 mg/kg", "type": "ADME, organism-based, Canis lupus familiaris", "conditions": "in vivo"}, "[22]": {"test": "Oral bioavailability in Sprague-Dawley rat at 1 mg/kg", "type": "ADME, organism-based", "conditions": "in vivo"}, "[23]": {"test": "Metabolic stability in dog liver microsomes assessed as half-life measured upto 120 mins in presence of NADPH-generating system by LC/MS/MS analysis", "type": "ADME, Canis lupus familiaris, Microsome"}, "[24]": {"test": "Metabolic stability in human liver microsomes assessed as half-life measured upto 120 mins in presence of NADPH-generating system by LC/MS/MS analysis", "type": "ADME, Microsome"}, "[25]": {"test": "Dissociation constant, pKa of compound", "type": "physicochemical"}, "[26]": {"test": "Half-life in Lewis rat at 2 mg/kg, po measured over 72 hrs by LC-MS/MS analysis", "type": "ADME, organism-based", "conditions": "in vivo"}, "Mus musculus [27]": {"system": "Mus musculus", "test": "as §1, with “as” for “as maximum efficacy causing”, “in” for “in EAE”, “scores for inflammation” for “score”", "type": "functional, organism-based", "conditions": "dose 0.1-0.5 mg/kg"}, "[28]": {"test": "Pulmonary toxicity in Lewis rat assessed as elevation of BAL protein level at 3 mg/kg by advia1800 chemistry analyzer", "type": "organism-based", "conditions": "in vivo"}, "[29]": {"test": "Metabolic stability in rat liver microsomes assessed as half-life measured upto 120 mins in presence of NADPH-generating system by LC/MS/MS analysis", "type": "ADME, Microsome"}, "[30]": {"test": "Tmax in Beagle dog at 0.3 mg/kg, po or 1 mg/kg, iv", "type": "ADME, organism-based, Canis lupus familiaris", "conditions": "in vivo"}, "Cytochrome P450 3A4": {"target": "Cytochrome P450 3A4 (Homo sapiens, UniProt P08684)", "sequence (P08684 whole entry)": "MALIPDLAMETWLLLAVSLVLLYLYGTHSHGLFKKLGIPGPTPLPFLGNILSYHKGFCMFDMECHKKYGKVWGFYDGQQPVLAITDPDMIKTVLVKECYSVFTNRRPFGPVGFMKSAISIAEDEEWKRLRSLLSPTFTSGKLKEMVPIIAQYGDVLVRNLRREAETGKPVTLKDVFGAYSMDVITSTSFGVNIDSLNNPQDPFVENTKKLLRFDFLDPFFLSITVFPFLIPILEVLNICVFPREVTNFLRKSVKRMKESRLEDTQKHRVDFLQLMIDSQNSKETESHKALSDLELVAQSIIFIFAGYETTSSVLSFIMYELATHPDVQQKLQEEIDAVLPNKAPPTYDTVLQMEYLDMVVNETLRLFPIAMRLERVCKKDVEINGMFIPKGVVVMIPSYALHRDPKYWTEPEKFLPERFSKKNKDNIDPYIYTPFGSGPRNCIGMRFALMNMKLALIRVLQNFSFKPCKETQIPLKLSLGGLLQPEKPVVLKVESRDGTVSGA", "test": "Inhibition of CYP3A4 (unknown origin)", "type": "ADME"}}, "note": "The source made the active and inactive calls. No cut-off for these calls is given here."}
{"compound": "COc1ccccc1CC[C@@H]1CCc2cc([C@H]3CC[C@](N)(CO)C3)ccc2C1", "note": "[UDIFITIMOD]", "values": [{"measurement": "Activity", "setting": "Rattus norvegicus [1]", "result": 76, "unit": "%"}, {"measurement": "Vd", "setting": "[2]", "result": 21, "unit": "L/kg"}, {"measurement": "Vd", "setting": "[3]", "result": 16, "unit": "L/kg"}, {"measurement": "Ratio", "setting": "[4]", "result": 5}, {"measurement": "Tmax", "setting": "[5]", "result": 6, "unit": "h"}, {"measurement": "half-life", "setting": "[6]", "result": 38, "unit": "h"}, {"measurement": "concentration at 24 h", "setting": "[7]", "result": 30, "unit": "nM"}, {"measurement": "Emax", "setting": "Mus musculus [8]", "result": 0.5, "unit": "mg/kg/day"}, {"measurement": "clearance", "setting": "[9]", "result": 3.8, "unit": "mL/min/kg"}, {"measurement": "fraction unbound", "setting": "[10]", "result": "< 0.001"}, {"measurement": "fraction unbound", "setting": "[11]", "result": "< 0.001"}, {"measurement": "Activity", "setting": "Mus musculus [12]", "result": "Active"}, {"measurement": "clearance", "setting": "[13]", "result": 9.7, "unit": "mL/min/kg"}, {"measurement": "Activity", "setting": "Mus musculus [14]", "result": "Dose-dependent effect"}, {"measurement": "IC50", "setting": "Cytochrome P450 2C9", "result": 14, "unit": "µM"}, {"measurement": "IC50", "setting": "Cytochrome P450 2C8", "result": 8.6, "unit": "µM"}, {"measurement": "Emax", "setting": "Mus musculus [15]", "result": 0.5, "unit": "mg/kg/day"}, {"measurement": "Drug metabolism", "setting": "Rattus norvegicus [16]", "result": 180, "unit": "nM"}, {"measurement": "Ratio AUC", "setting": "[17]", "result": 5.2}, {"measurement": "Activity", "setting": "[18]", "result": 14, "unit": "mg/dL"}, {"measurement": "IC50", "setting": "Cytochrome P450 2B6", "result": 17, "unit": "µM"}, {"measurement": "Vd", "setting": "[19]", "result": 10, "unit": "L/kg"}, {"measurement": "Activity", "setting": "Mus musculus [20]", "result": 92, "unit": "%"}, {"measurement": "bioavailability", "setting": "[21]", "result": 61, "unit": "%"}, {"measurement": "bioavailability", "setting": "[22]", "result": 23, "unit": "%"}, {"measurement": "half-life", "setting": "[23]", "result": 6.2, "unit": "h"}, {"measurement": "half-life", "setting": "[24]", "result": 4.03, "unit": "h"}, {"measurement": "pKa", "setting": "[25]", "result": 9.5}, {"measurement": "half-life", "setting": "[26]", "result": 27, "unit": "h"}, {"measurement": "Activity", "setting": "Mus musculus [27]", "result": "Dose-dependent effect"}, {"measurement": "Activity", "setting": "[28]", "result": 8.8, "unit": "mg/dL"}, {"measurement": "half-life", "setting": "[29]", "result": 1.62, "unit": "h"}, {"measurement": "Tmax", "setting": "[30]", "result": 6, "unit": "h"}, {"measurement": "IC50", "setting": "Cytochrome P450 3A4", "result": 5.5, "unit": "µM"}]}
